Common to all, as to type: cell-based
Experiment [1] concerns Mycobacterium tuberculosis H37Ra [结核分枝杆菌H37Ra].
For experiment [2], the system named is wild-type Mycobacterium tuberculosis H37Rv [野生型结核分枝杆菌(H37Rv)]. The experiment in a line: microbe, parasite or virus in culture. As to conditions: Alamar Blue, 37℃, 10 days + 1 day; for MIC: compound alone; for MIC + TB47: with TB47 0.003 μg/mL.
The test system of experiment [3] is autoluminescent Mycobacterium tuberculosis H37Ra [自主发光Mtb H37Ra]. Briefly: microbe, parasite or virus in culture.
Where [4] appears, read: Mycobacterium tuberculosis, read-out: MIC.
[5] abbreviates: Mycobacterium tuberculosis, H37RA, read-out: MIC.

Converted amounts (≈) assume the structure as drawn. Read-outs that look alike come from different tables or passages of the source.

Data on 21 compounds can be found in patent CN116283752A (priority 2023, dated 2023).

On to `O=C(Nc1ccc(C(F)(F)F)nc1)c1cc(Cl)ccc1O` [化合物3, 5-氯-2-羟基-N-(6-三氟甲基-3-吡啶基)-苯甲酰胺], for which the “MIC in synergy with TB47” value in experiment [1] was 0.25 µg/mL. The figures for the MIC in experiment [2] (setting [4]), in experiment [3] and in experiment [3] (setting [5]) were 4 µg/mL, 4 µg/mL (≈ 12.6 µM) and 4 µg/mL (≈ 12.6 µM), respectively. Moreover, in experiment [2], the “MIC + TB47” value is 0.5 µg/mL.
`O=C(Nc1nccc(C(F)(F)F)n1)c1cc(Cl)ccc1O` [compound 15, 5-氯-2-羟基-N-(4-三氟甲基-2-嘧啶基)-苯甲酰胺]: the MIC in experiment [3] (setting [5]) came out at 5 µg/mL (≈ 15.7 µM).
On the same count and under the same terms, the result for `O=C(Nc1ccc(Cl)nn1)c1cc(Cl)ccc1O` [compound 19, 5-氯-N-(6-氯-3-哒嗪基)-2-羟基苯甲酰胺] reads 10 µg/mL (≈ 35.2 µM).
With `O=C(Nc1ccc(Cl)nc1Cl)c1cc(Cl)ccc1O` [化合物8, 5-氯-N-(2,6-二氯-3-吡啶基)-2-羟基苯甲酰胺], in experiment [1], the “MIC in synergy with TB47” value was 0.625 µg/mL. For the same compound, the figures for the MIC in experiment [2] (setting [4]), in experiment [3] and in experiment [3] (setting [5]) were 4 µg/mL, 2.5 µg/mL (≈ 7.87 µM) and 2.5 µg/mL (≈ 7.87 µM), respectively. Moreover, the “MIC + TB47” value in experiment [2] worked out at 0.25 µg/mL.
Consider `O=C(Nc1cncc(C(F)(F)F)c1)c1cc(Cl)ccc1O` [compound 5, 5-氯-2-羟基-N-(5-三氟甲基-3-吡啶基)-苯甲酰胺], for which the MIC in experiment [3] (setting [5]) came to 5 µg/mL (≈ 15.8 µM).
Regarding `O=C(Nc1nc2ccc(C(F)(F)F)cc2s1)c1cc(Cl)ccc1O` [化合物18, 5-氯-2-羟基-N-(6-三氟甲基-2-苯并噻唑基)-苯甲酰胺], the “MIC in synergy with TB47” value in experiment [1] turned out to be 0.625 µg/mL. The MIC in experiment [3] and in experiment [3] (setting [5]) was 5 µg/mL (≈ 13.4 µM) each time.
Turning to `O=C(Nc1ncc(Cl)s1)c1cc(Cl)ccc1O` [compound 21, 5-氯-N-(5-氯-2-噻唑基)-2-羟基苯甲酰胺], in experiment [3] (setting [5]), the MIC turned out to be 5 µg/mL (≈ 17.3 µM).
Regarding `O=C(Nc1cnc(Cl)nc1)c1cc(Cl)ccc1O` [compound 13, 5-氯-N-(2-氯-5-嘧啶基)-2-羟基苯甲酰胺], the MIC in experiment [3] (setting [5]) was found to be 5 µg/mL (≈ 17.6 µM).
Consider `O=C(Nc1nnc(C(F)(F)F)s1)c1cc(Cl)ccc1O` [compound 20, 5-氯-2-羟基-N-[5-三氟甲基-2-(1,3,4-噻二唑基)]-苯甲酰胺], for which the MIC in experiment [3] (setting [5]) was 10 µg/mL (≈ 30.9 µM).
In the case of `O=C(Nc1cc(Cl)ncn1)c1cc(Cl)ccc1O` [compound 14, 5-氯-N-(6-氯-4-嘧啶基)-2-羟基苯甲酰胺], the MIC in experiment [3] (setting [5]) came out at 2.5 µg/mL (≈ 8.8 µM).
On to `O=C(Nc1ccc(Cl)cn1)c1cc(Cl)ccc1O` [化合物1, 5-氯-N-(5-氯-2-吡啶基)-2-羟基苯甲酰胺], for which the MIC in experiment [3] (setting [5]) came out at 5 µg/mL (≈ 17.7 µM).
Take `O=C(Nc1ccnc(C(F)(F)F)c1)c1cc(Cl)ccc1O` [化合物4, 5-氯-2-羟基-N-(2-三氟甲基-4-吡啶基)-苯甲酰胺]: the “MIC in synergy with TB47” value in experiment [1] is 0.625 µg/mL. Also, the MIC in experiment [2] (setting [4]) came out at 2 µg/mL; in experiment [2] it was 2 µg/mL; in experiment [3] it was 1.25 µg/mL (≈ 3.95 µM); in experiment [3] (setting [5]), 1.25 µg/mL (≈ 3.95 µM). Further, the “MIC + TB47” value in experiment [2] is under 0.125 µg/mL.
For the compound `O=C(Nc1cnc(Cl)cn1)c1cc(Cl)ccc1O` [compound 9, 5-氯-N-(5-氯-2-吡嗪基)-2-羟基苯甲酰胺], the MIC in experiment [3] (setting [5]) was found to be 4 µg/mL (≈ 14.1 µM).
As for `O=C(Nc1cc(C(F)(F)F)ncn1)c1cc(Cl)ccc1O` [compound 16, 5-氯-2-羟基-N-(6-三氟甲基-4-嘧啶基)-苯甲酰胺], in experiment [1], the “MIC in synergy with TB47” value was found to be 0.625 µg/mL. For the same compound, the MIC in experiment [3] and in experiment [3] (setting [5]) was 2.5 µg/mL (≈ 7.87 µM) each time.
For `O=C(Nc1cncc(Cl)n1)c1cc(Cl)ccc1O` [化合物10, 5-氯-N-(6-氯-2-吡嗪基)-2-羟基苯甲酰胺], the MIC was 4 µg/mL in experiment [2] (setting [4]) and 2.5 µg/mL (≈ 8.8 µM) in experiment [3] (setting [5]). The “MIC + TB47” value in experiment [2] was found to be 0.25 µg/mL.
For the compound `O=C(Nc1cc(Cl)nc(Cl)c1)c1cc(Cl)ccc1O` [compound 6, 5-氯-N-(2,6-二氯-4-吡啶基)-2-羟基苯甲酰胺], the “MIC in synergy with TB47” value in experiment [1] came out at 0.625 µg/mL. Also, the MIC in experiment [3] and in experiment [3] (setting [5]) was 1.25 µg/mL (≈ 3.94 µM) each time.
In the case of `O=C(Nc1nc2ccc(OC(F)(F)F)cc2s1)c1cc(Cl)ccc1O` [compound 17, 5-氯-2-羟基-N-(6-三氟甲氧基-2-苯并噻唑基)-苯甲酰胺], in experiment [3] (setting [5]), the MIC amounted to 10 µg/mL (≈ 25.7 µM).
Take `O=C(Nc1cnc(C(F)(F)F)cn1)c1cc(Cl)ccc1O` [化合物11, 5-氯-2-羟基-N-(5-三氟甲基-2-吡嗪基)-苯甲酰胺]: the “MIC in synergy with TB47” value in experiment [1] was 0.625 µg/mL. Further, the MIC in experiment [2] (setting [4]) turned out to be 2 µg/mL; in experiment [2], 2 µg/mL; in experiment [3] it was 1.25 µg/mL (≈ 3.94 µM); in experiment [3] (setting [5]), 1.25 µg/mL (≈ 3.94 µM). In addition, in experiment [2], the “MIC + TB47” value is under 0.125 µg/mL.
Turning to `O=C(Nc1cnc(Cl)c(Cl)c1)c1cc(Cl)ccc1O` [化合物7, 5-氯-N-(5,6-二氯-3-吡啶基)-2-羟基苯甲酰胺], the MIC was 4 µg/mL in experiment [2] (setting [4]) and 2.5 µg/mL (≈ 7.87 µM) in experiment [3] (setting [5]). Besides, in experiment [2], the “MIC + TB47” value turned out to be 0.25 µg/mL.
As for `O=C(Nc1ccc(C(F)(F)F)cn1)c1cc(Cl)ccc1O` [化合物2, 5-氯-2-羟基-N-(5-三氟甲基-2-吡啶基)-苯甲酰胺], the MIC in experiment [3] and in experiment [3] (setting [5]) was 1.25 µg/mL (≈ 3.95 µM) each time.
As to `O=C(Nc1ncc(Cl)cn1)c1cc(Cl)ccc1O` [compound 12, 5-氯-N-(5-氯-2-嘧啶基)-2-羟基苯甲酰胺], in experiment [3] (setting [5]), the MIC stood at 5 µg/mL (≈ 17.6 µM).
